Consider 28 compounds from patent publication US10450297B2, “Sulfonyl amide derivatives for the treatment of abnormal cell growth” (Pfizer, Inc., priority 2007, dated 2019).

Sequence of FAK kinase (catalytic construct FAK(410-689)) (Q05397 410-689): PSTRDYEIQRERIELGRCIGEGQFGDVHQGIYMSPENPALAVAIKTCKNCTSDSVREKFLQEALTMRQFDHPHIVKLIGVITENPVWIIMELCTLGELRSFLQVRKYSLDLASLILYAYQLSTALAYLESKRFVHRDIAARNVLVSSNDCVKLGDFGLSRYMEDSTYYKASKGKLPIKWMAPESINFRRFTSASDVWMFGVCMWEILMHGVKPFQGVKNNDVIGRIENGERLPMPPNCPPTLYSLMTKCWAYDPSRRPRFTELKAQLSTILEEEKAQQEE

This assay has as its target FAK kinase (catalytic construct FAK(410-689)) (Homo sapiens (Human), UniProt Q05397). As to the kind of experiment: FAKcd kinase ELISA (inhibition of poly-glu-tyr phosphorylation by FAK(410-689)). Format: biochemical. Particulars: 50 μM final ATP. A general note: An ELISA detects its analyte on a solid surface through an enzyme-linked reagent.
Take `CN(C)C(=O)CNC(=O)c1cccc(Nc2ncc(C(F)(F)F)c(NCc3cccnc3N(C)S(C)(=O)=O)n2)c1` [Compound 133, N-[2-(dimethylamino)-2-oxoethyl]-3-({4-[({2-[methyl(methylsulfonyl)amino]pyridin-3-yl}methyl)amino]-5-(trifluoromethyl)pyrimidin-2-yl}amino)benzamide]: the 50% inhibitory concentration (IC50) was determined as 1.95 nM. For `COC(=O)c1ccc(Nc2ncc(C(F)(F)F)c(NCc3cccnc3N(C)S(C)(=O)=O)n2)cc1` [Compound 40, methyl 4-({4-[({2-[methyl(methylsulfonyl)amino]pyridin-3-yl}methyl)amino]-5-(trifluoromethyl)pyrimidin-2-yl}amino)benzoate] the value was 0.59 nM; for `CN(c1ncccc1CNc1nc(Nc2ccc(C(=O)OC(C)(C)C)cc2)ncc1C(F)(F)F)S(C)(=O)=O` [Compound 219, tert-butyl 4-({4-[({2-[methyl(methylsulfonyl)amino]pyridin-3-yl}methyl)amino]-5-(trifluoromethyl)pyrimidin-2-yl}amino)benzoate], 0.6 nM. Then `CS(=O)(=O)c1cccc(CNc2nc(Nc3ccc(S(N)(=O)=O)cc3)ncc2Br)c1` [Compound 35, 4-[(5-bromo-4-{[3-(methylsulfonyl)benzyl]amino}pyrimidin-2-yl)amino]benzene-sulfonamide], with 17.6 nM; and `C[C@@H]1COCCN1C(=O)c1cccc(Nc2ncc(C(F)(F)F)c(NCc3cccnc3N(C)S(C)(=O)=O)n2)c1` [Compound 207, N-methyl-N-{3-[({2-[(3-{[(3R)-3-methylmorpholin-4-yl]carbonyl}phenyl)amino]-5-(trifluoromethyl)pyrimidin-4-yl}amino)methyl]pyridin-2-yl}methanesulfonamide], with 2.78 nM. For `Cc1ncc(CNc2nc(Nc3cccc(C(N)=O)c3)ncc2C(F)(F)F)c(N(C)S(C)(=O)=O)n1` [Compound 296, 3-({4-[({2-methyl-4-[methyl(methylsulfonyl)amino]pyrimidin-5-yl}methyl)amino]-5-(trifluoromethyl)pyrimidin-2-yl}amino)benzamide] the value was 3.89 nM. `CN(c1ncccc1CNc1nc(Nc2cccc(CN)c2)ncc1C(F)(F)F)S(C)(=O)=O` [Compound 214, N-[3-({[2-{[3-(aminomethyl)phenyl]amino}-5-(trifluoromethyl)pyrimidin-4-yl]amino}methyl)pyridin-2-yl]-N-methylmethane-sulfonamide] registered a concentration for half-maximal inhibition (IC50) of 0.7 nM. Compared with the last compound, the IC50 is about 5.6-fold lower. As for `CN(c1ncccc1CNc1nc(Nc2ccc(C#N)nc2)ncc1C(F)(F)F)S(C)(=O)=O` [Compound 292, N-{3-[({2-[(6-cyanopyridin-3-yl)amino]-5-(trifluoromethyl)pyrimidin-4-yl}amino)methyl]pyridin-2-yl}-N-methylmethane-sulfonamide], half-maximal inhibition (IC50) required 23.3 nM. Against the preceding compound, the IC50 is about 33-fold higher. The compound `CN(c1ncccc1CNc1nc(Nc2ccc(C(C)(C)O)cc2)ncc1C(F)(F)F)S(C)(=O)=O` [Compound 323, N-[3-({[2-{[4-(1-hydroxy-1-methylethyl)phenyl]amino}-5-(trifluoromethyl)pyrimidin-4-yl]amino}methyl)pyridin-2-yl]-N-methylmethane-sulfonamide] showed an IC50 of 1.5 nM. Then `C[C@H](N)c1ccc(Nc2ncc(C(F)(F)F)c(NCc3nccnc3N(C)S(C)(=O)=O)n2)cc1` [Compound 355, N-[3-({[2-({4-((1S)-1-aminoethyl]phenyl}amino)-5-(trifluoromethyl)pyrimidin-4-yl]amino}methyl)pyrazin-2-yl]-N-methylmethane-sulfonamide], with below 0.595 nM; and `CN(c1ncccc1CNc1nc(Nc2cccc(C(N)=NO)c2)ncc1C(F)(F)F)S(C)(=O)=O` [Compound 408, N′-hydroxy-3-({4-[({2-[methyl(methylsulfonyl)amino]pyridin-3-yl}methyl)amino]-5-(trifluoromethyl)pyrimidin-2-yl}amino)benzenecarboximidamide], with 2.29 nM; and `CN(C)C1CN(C(=O)c2cccc(Nc3ncc(C(F)(F)F)c(NCc4cccnc4N(C)S(C)(=O)=O)n3)c2)C1` [Compound 165, N-{3-[({2-[(3-{[3-(dimethylamino)azetidin-1-yl]carbonyl}phenyl)amino]-5-(trifluoromethyl)pyrimidin-4-yl}amino)methyl]pyridin-2-yl}-N-rnethylmethane-sulfonamide], with 4.93 nM. For `CN(c1ncccc1CNc1nc(Nc2ccc(C(N)=O)nc2)ncc1C(F)(F)F)S(C)(=O)=O` [Compound 372, 5-({4-[({2-[methyl(methylsulfonyl)amino]pyridin-3-yl}methyl)amino]-5-(trifluoromethyl)pyrimidin-2-yl}amino)pyridine-2-carboxamide] the value was 4 nM; for `CN(c1ncccc1CNc1nc(Nc2ccc(C(N)=O)c(Cl)c2)ncc1C(F)(F)F)S(C)(=O)=O` [Compound 358, 2-chloro-4-({4-[({2-[methyl(methylsulfonyl)amino]pyridin-3-yl}methyl)amino]-5-(trifluoromethyl)pyrimidin-2-yl}amino)benzamide], below 0.595 nM.

Compound `CN(c1ncccc1CNc1nc(Nc2cccc(C(=O)NC3CCCC3)c2)ncc1C(F)(F)F)S(C)(=O)=O` [Compound 163, N-cyclopentyl-3-({4-[({2-[methyl(methylsulfonyl)amino]pyridin-3-yl}methyl)amino]-5-(trifluoromethyl)pyrimidin-2-yl}amino)benzamide] displayed an IC50 of 5.1 nM. This lies in the single-digit nanomolar range.

Consider `Cc1cnc(N(C)S(C)(=O)=O)c(CNc2nc(Nc3ccccc3)ncc2C(F)(F)F)c1` [Compound 70, N-[3-({[2-anilino-5-(trifluoromethyl)pyrimidin-4-yl]amino}methyl)-5-methylpyridin-2-yl]-N-methylmethanesulfonamide], for which inhibition was half-maximal at 0.6 nM (IC50). For `CCC(CO)NC(=O)c1cccc(Nc2ncc(C(F)(F)F)c(NCc3cccnc3N(C)S(C)(=O)=O)n2)c1` (stereo not shown) [Compound 203, N-[1-(hydroxymethyl)propyl]-3-({4-[({2-[methyl(methylsulfonyl)amino]pyridin-3-yl}methyl)amino]-5-(trifluoromethyl)pyrirnidin-2-yl}amino)benzamide] the value was 1.13 nM. Then `COc1ccc(Nc2ncc(C(F)(F)F)c(NCc3cccnc3N(C)S(C)(=O)=O)n2)cc1OC` [Compound 282, N-{3-[({2-[(3,4-dimethoxyphenyl)amino]-5-(trifluoromethyl)pyrimidin-4-yl}amino)methyl]pyridin-2-yl}-N-methylmethane-sulfonamide], with 0.6 nM; and `COCCNC(=O)c1ccc(Nc2ncc(C(F)(F)F)c(NCc3cccnc3N(C)S(C)(=O)=O)n2)cc1` [Compound 276, N-(2-methoxyethyl)-4-({4-[({2-[methyl(methylsulfonyl)amino]pyridin-3-yl}methyl)amino]-5-(trifluoromethyl)pyrimidin-2-yl}amino)benzamide], with 0.6 nM. In the case of `CN(c1ncccc1CNc1nc(Nc2ccc(C(=O)N3CCC(C)(O)C3)cc2)ncc1C(F)(F)F)S(C)(=O)=O` (stereo not shown) [Compound 268, N-[3-({[2-({4-[(3-hydroxy-3-methylpyrrolidin-1 - yl)carbonyl]phenyl}amino)-5-(trifluoromethyl)pyrimidin-4-yl]amino}methyl)pyridin-2-yl]-N-methylmethane-sulfonamide], half-maximal inhibition (IC50) was put at 2.62 nM. For `CN(c1ncccc1CNc1nc(Nc2ccc(C(=O)NC3CCCOC3)cc2)ncc1C(F)(F)F)S(C)(=O)=O` (stereo not shown) [Compound 263, 4-({4-(({2-[methyl(methylsulfonyl)amino]pyridin-3-yl}methyl)amino]-5-(trifluoromethyl)pyrimidin-2-yl}amino)-N-(tetrahydro-2H-pyran-3-yl)benzamide] the value was 0.81 nM; for `CN(c1ncccc1CNc1nc(Nc2cccc(CNS(=O)(=O)C(F)(F)F)c2)ncc1C(F)(F)F)S(C)(=O)=O` [Compound 303, 1,1,1-trifluoro-N-[3-({4-[({2-[methyl(methylsulfonyl)amino]pyridin-3-yl}methyl)amino]-5-(trifluoromethyl)pyrimidin-2-yl}amino)benzyl]methanesulfonamide], 0.727 nM; for `CN(c1ncccc1CNc1nc(Nc2nccc(N)n2)ncc1C(F)(F)F)S(C)(=O)=O` [Compound 298, N-{3-[({2-[(4-aminopyrimidin-2-yl)amino]-5-(trifluoromethyl)pyrimidin-4-yl}amino)methyl]pyridin-2-yl}-N-methylmethane-sulfonamide], 32.8 nM. Compound `COc1ccc(C(N)=O)cc1Nc1ncc(C(F)(F)F)c(NCc2cccnc2N(C)S(C)(=O)=O)n1` [Compound 304, 4-methoxy-3-({4-[({2-[methyl(methylsulfonyl)amino]pyridin-3-yl}methyl)amino]-5-(trifluoromethyl)pyrimidin-2-yl}amino)benzamide] came in with an IC50 of 0.777 nM. Compound `C[C@@H](N)c1ccc(Nc2ncc(C(F)(F)F)c(NCc3cccc(N(C)S(C)(=O)=O)c3)n2)cc1` [Compound 353, N-[3-({[2-({4-[(1R)-1-aminoethyl]phenyl}amino)-5-(trifluoromethyl)pyrimidin-4-yl]amino}methyl)phenyl]-N-methylmethanesulfonamide] gave an IC50 below 0.595 nM. Compound `CC(=O)NCC(=O)Nc1cccc(Nc2ncc(C(F)(F)F)c(NCc3nccnc3N(C)S(C)(=O)=O)n2)c1` [Compound 397, N-2-acetyl-N-[3-({4-[({3-[methyl(methylsulfonyl)amino]pyrazin-2-yl}methyl)amino]-5-(trifluoromethyl)pyrimidin-2-yl}amino)phenyl]glycinamide] displayed an IC50 of 1.51 nM. As for `CN(c1nccnc1CNc1nc(Nc2ccc(C(N)=O)c(F)c2)ncc1C(F)(F)F)S(C)(=O)=O` [Compound 327, 2-fluoro-4-({4-[({3-[methyl(methylsulfonyl)amino]pyrazin-2-yl}methyl)amino]-5-(trifluoromethyl)pyrimidin-2-yl}amino)benzamide], the IC50 amounted to 1.69 nM. For `CN(c1ncccc1CNc1nc(Nc2ccc(F)c(C(N)=O)c2)ncc1C(F)(F)F)S(C)(=O)=O` [Compound 380, 2-fluoro-5-({4-[{{2-[methyl(methylsulfonyl)amino]pyridin-3-yl}methyl)amino]-5-(trifluoromethyl)pyrimidin-2-yl}amino)benzamide] the value was 1.6 nM.

As usually defined, the IC50 is the concentration needed to halve the response being measured.
